We go through one compound from article PMC3160846 (PLoS ONE, 2011).

The target of one assay is T1, Aurora-A (Homo sapiens, UniProt O14965).
T1 construct: GST-tagged Aurora-A (residues S123-S401) containing kinase domain; GST; made in house; host or cells: Sf9 insect cells
Put plainly: In vitro kinase inhibition assay, Aurora-A. It is filed as biochemical. Conditions: recombinant GST-tagged Aurora-A, 37°C, 90 min. The procedure:
Aurora-A and Aurora-B kinase - The recombinant GST-tagged Aurora-A (residues S123-S401) containing kinase domain was expressed in Sf9 insect cells. The recombinant full length His-tagged Aurora-B (residues M1∼A344) was purchased from Invitrogen (PV3970). The kinase assay were carried out in 96-well plates with the tested compound at either 37°C (Aurora-A) for 90 min or 30°C (Aurora-B) for 120 min.
(§1) Composition of the reaction buffers used in different kinase inhibitory assays is described in Figure S3.
50 mM Tris-HCl pH 7.4, 10 mM NaCl, 10 mM MgCl2, 0.01% BSA, 5 mM ATP, 1 mM DTT and […] tetra(LRRASLG) peptide, and either 150 ng recombinant Aurora-A or 40 ng recombinant Aurora-B.

The next assay concerns the target T2, cMET (Homo sapiens, UniProt P08581).
T2 construct: GST-tagged c-Met (residues K956-S1390) containing kinase domain; GST; made in house; host or cells: Sf9 insect cells
Put plainly: Kinase inhibition assay, cMET. It is filed as biochemical. The procedure:
c-Met – The recombinant GST-tagged c-Met (residues K956-S1390) containing kinase domain was expressed in Sf9 insect cells. The kinase assay was carried out in 96-well plates with the tested compound at 30°C for 120 min.
as §1
25 mM HEPES pH 7.4, 10mM MgCl2, 4 mM MnCl2, 0.5mM Na3VO4, 2 mM DTT, 0.02% Triton X100, 0.01% BSA, 1 mM ATP, 2 mM polyGlu4:Tyr peptide, 75 ng recombinant Met.

For the next assay, the target named is T3, VEGFR1 (Homo sapiens, UniProt P17948).
T3 construct: GST-tagged VEGFR1 (residues R781-I1338); GST; made in house; host or cells: Sf9 insect cells
Put plainly: Kinase inhibition assay, VEGFR1. It is filed as biochemical. The procedure:
(§2) VEGFR1/2 – The recombinant GST-tagged VEGFR1 (residues R781-I1338) or VEGFR2 (residues V789-V1356) containing kinase domain were expressed in Sf9 insect cells. The kinase assay was carried out in 96-well plates with the tested compound at 30°C for 120 min.
as §1
(§3) 25 mM HEPES pH 7.4, 10 mM MgCl2, 4mM MnCl2, 0.5mM Na3VO4, 2 mM DTT, 0.02% Triton X100, 0.01% BSA, 1 mM ATP, 2 mM polyGlu4:Tyr peptide, 50~100 ng recombinant VEGFR1 or VEGFR2.

Another assay deals with T4, VEGFR2 (Homo sapiens, UniProt P35968).
T4 construct: VEGFR2 (residues V789-V1356) containing kinase domain; GST; made in house; host or cells: Sf9 insect cells
Put plainly: Kinase inhibition assay, VEGFR2. The format is biochemical. The method, then:
as §2, §1, §3

The test system of the next assay is A549 cells. Put plainly: Clonogenic assay, A549. The format is cell-based, Human. The note with it: Homo sapiens; A549, lung, p53 wild-type, MDR1 negative; read-out: IC50, anti-proliferative activity. The procedure:
(§4) Human lung adenocarcinoma A549 cells and NTUB1 bladder cancer cells were maintained in RPMI supplied with 10% fetal bovine serum. […] KB-derived MRP1-expressing cell line, KB-7D, was maintained in growth medium supplemented with 7 µM VP-16.
(§5) Two hundred cells in logarithmic growth phase were seeded in a 6-well plate. The cells were exposed to various concentrations of the test drugs for a three-generation period. At the end of the incubation period, cells were fixed and stained with 50% ethanol containing 0.5% methylene blue for 30 min. The plates were washed five times with water and allowed to air-dry. Colonies were countered manually. […] Each value represents the average of at least three independent experiments run in triplicates.

Another assay concerns OECM-1 cells. Put plainly: Clonogenic assay, OECM-1. It is filed as cell-based, Human. Conditions: Homo sapiens, OECM1; OECM-1, oral, p53 mutant, MDR1 negative; read-out: IC50, anti-proliferative activity. The method, then:
as §4, §5

A further assay concerns KB-S15 cells. Put plainly: Clonogenic assay, KB-S15. The format is cell-based, Human. The method, then:
as §4, §5

Assay [1] concerns HONE-1 cells. Put plainly: Endo-replication (polyploidy), microscopy and flow cytometry, HONE-1. The format is cell-based, Human. Conditions: HONE-1, 48 h. The procedure:
Cell cycle progression was monitored using flow cytometry. After drug treatment, cells were trypsinized, washed with PBS and fixed in 80% ethanol at −20°C for 1 h. The fixed cells were stained with propidium iodide (containing RNase) at room temperature in the dark for 20 min. The DNA content was determined by a fluorescence-activated cell sorting IV flow cytometer (BD Biosciences, Franklin Lakes, NJ). For each analysis, 10,000 cells were counted and the percentage of cells in each phase was calculated using the ModFit LT software (Verity Software House, Topsham, ME). Experiments were repeated independently at least three times.
(In flow cytometry, cells or beads pass a laser one at a time.)

In assay [2] the test system is HONE-1 cells. Put plainly: Western blot of Histone H3 phosphorylation and cyclin B1, HONE-1. It is filed as cell-based, Human. Conditions: HONE-1, 48 h. The method, then:
Cells were lysed with ice-cold lysis buffer (10 mM Tris, 1 mM EDTA, 1 mM DTT, 60 mM KCl, 0.5% NP-40 and protease inhibitors). […] The resolved proteins were electrophoretically transferred to PVDF membranes (Amersham Life Science, Amersham, U.K.) for Western blot analysis. The membranes were blocked with 5% non-fat milk at room temperature for two hours, washed twice with TBST (1% Tween) and then incubated with either anti-phosphorylated Aurora-A/-B/-C kinase antibody (#2914S, Cell Signaling Technology, Danvers, MA), anti-Aurora-A and -B kinase antibody (#ab1287 and #ab2254, Abcam, Cambridge, MA), anti-phosphorylated Histone H3 antibody (#9701, Cell Signaling Technology, Danvers, MA), anti-Histone H3 antibody (#9715, Cell Signaling Technology, Danvers, MA), anti-Cyclin B1 antibody or anti-Actin antibody (#sc-245 and #sc-130065, Santa Cruz Biotechnology, Santa Cruz, CA) overnight at 4°C. Membranes were washed twice with TBST then subsequently incubated with a horseradish peroxidase-conjugated secondary antibody (Santa Cruz Biotechnology, Santa Cruz, CA) for 1 hour at room temperature. Immunoreactivity was detected by Enhanced Chemiluminescence (Amersham International, Buckingham, U.K.) and autoradiography. Experiments were repeated independently at least two times.
(In general: Immunoblotting shows a protein as a band on a membrane.)

The next assay deals with KB cells. Put plainly: Autophagy (LC3 conversion, Western blot), KB. The format is cell-based, Human. Conditions: 48 h or 72 h, full serum. The procedure:
KB cells were treated with either DMSO (negative control) or BPR1K653 (48 h or 72 h) under full serum conditions. Cells cultured drug-free under reduced serum conditions were used as a positive control. Expression of various proteins was determined by Western blotting. The level of conversion of LC3-I to LC3-II provides an indicator of autophagic activity. (TIF) Click here for additional data file.

T1 sequence (O14965 123-401): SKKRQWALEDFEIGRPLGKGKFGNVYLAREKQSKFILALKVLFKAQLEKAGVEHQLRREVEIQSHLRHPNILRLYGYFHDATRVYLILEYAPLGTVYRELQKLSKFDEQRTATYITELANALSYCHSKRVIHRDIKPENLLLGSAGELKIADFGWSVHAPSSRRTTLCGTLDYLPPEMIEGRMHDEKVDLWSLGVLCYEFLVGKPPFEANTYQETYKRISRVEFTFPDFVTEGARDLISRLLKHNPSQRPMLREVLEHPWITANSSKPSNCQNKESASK
T4 sequence (P35968 789-1356): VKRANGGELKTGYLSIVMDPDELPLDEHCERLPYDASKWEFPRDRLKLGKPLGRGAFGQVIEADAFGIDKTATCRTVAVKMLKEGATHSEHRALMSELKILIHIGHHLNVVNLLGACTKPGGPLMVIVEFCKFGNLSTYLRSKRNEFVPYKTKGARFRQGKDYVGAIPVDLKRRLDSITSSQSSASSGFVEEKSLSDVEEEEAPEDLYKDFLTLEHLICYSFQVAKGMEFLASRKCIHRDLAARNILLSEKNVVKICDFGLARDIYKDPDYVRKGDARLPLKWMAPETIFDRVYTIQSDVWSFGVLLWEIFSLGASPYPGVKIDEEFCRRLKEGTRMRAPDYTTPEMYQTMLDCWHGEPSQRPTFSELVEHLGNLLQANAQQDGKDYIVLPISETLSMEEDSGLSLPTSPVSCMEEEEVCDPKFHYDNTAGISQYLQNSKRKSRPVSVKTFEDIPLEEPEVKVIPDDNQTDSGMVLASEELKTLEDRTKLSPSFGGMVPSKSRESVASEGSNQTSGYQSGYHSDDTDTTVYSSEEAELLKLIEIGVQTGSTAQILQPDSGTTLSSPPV
T2 sequence (P08581 956-1390): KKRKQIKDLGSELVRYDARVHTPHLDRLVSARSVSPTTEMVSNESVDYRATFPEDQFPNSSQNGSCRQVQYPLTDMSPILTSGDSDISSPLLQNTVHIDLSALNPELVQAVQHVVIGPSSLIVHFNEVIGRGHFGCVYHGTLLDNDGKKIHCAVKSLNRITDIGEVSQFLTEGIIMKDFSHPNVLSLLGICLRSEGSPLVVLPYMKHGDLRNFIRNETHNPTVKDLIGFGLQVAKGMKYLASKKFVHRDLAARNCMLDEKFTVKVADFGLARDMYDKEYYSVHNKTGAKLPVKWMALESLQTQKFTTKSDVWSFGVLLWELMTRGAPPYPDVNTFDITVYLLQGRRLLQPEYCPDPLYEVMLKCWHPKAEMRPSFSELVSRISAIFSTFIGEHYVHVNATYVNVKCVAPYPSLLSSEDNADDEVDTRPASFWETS
T3 sequence (P17948 781-1338): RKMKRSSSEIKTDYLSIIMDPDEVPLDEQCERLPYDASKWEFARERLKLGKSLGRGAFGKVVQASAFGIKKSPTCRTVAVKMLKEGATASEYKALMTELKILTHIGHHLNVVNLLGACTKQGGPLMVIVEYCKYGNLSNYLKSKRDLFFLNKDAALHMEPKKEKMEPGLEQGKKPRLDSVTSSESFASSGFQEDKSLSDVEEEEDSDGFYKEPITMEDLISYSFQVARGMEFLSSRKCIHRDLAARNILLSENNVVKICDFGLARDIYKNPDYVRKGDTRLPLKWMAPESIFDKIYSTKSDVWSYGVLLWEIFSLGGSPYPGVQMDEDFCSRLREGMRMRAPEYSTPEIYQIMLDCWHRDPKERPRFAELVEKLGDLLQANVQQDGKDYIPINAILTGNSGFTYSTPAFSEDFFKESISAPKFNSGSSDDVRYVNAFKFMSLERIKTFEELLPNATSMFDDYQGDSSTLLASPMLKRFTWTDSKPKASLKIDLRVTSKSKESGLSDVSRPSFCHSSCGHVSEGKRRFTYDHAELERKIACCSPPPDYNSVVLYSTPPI

In the case of `CN(C)Cc1ccccc1NC(=O)Nc1ccc(CCNc2ncnc3oc(-c4ccccc4)c(Cl)c23)cc1` [BPR1K653], the IC50 – broadly, the concentration at which inhibition is half-maximal – is 0.124 µM at Aurora-A; over 10 µM against cMET; over 10 µM on VEGFR1; over 10 µM on VEGFR2; 0.009 µM in the assay on A549 cells; 0.135 ± 0.01 µM in the assay with OECM-1 cells. Moreover, in the assay on KB-S15 cells (Homo sapiens, KB-S15, paclitaxol resistant, MDR1 ↑, read-out: IC50, anti-proliferative activity), the IC50 came out at 0.011 ± 0.004 µM. For the same compound, the “Fold difference as compare to the IC50 in the respective parental cells” value in the assay with KB-S15 cells (KB-S15 vs KB) amounted to 1 fold. Moreover, the “formation of polyploidy (populations >4N)” value in the assay on HONE-1 cells [1] is recorded as “promoted the formation of polyploidy”. Besides, the “phosphorylation of Histone H3 and expression of cyclin B1” value in the assay with HONE-1 cells [2] is recorded as “decreased”. Also, in the assay with KB cells, the induction of autophagy entry is given as “not autophagy”.
